# According to the supplement of paper PMC10307832:
# Legend:
# Experiment in all cases: relative viability (nuclei count vs DMSO), 5 days (fraction); higher = more cells survive
# Palbociclib + Foretinib = compound: CC(=O)c1c(C)c2cnc(Nc3ccc(N4CCNCC4)cn3)nc2n(C2CCCC2)c1=O [Palbociclib] + COc1cc2c(Oc3ccc(NC(=O)C4(C(=O)Nc5ccc(F)cc5)CC4)cc3F)ccnc2cc1OCCCN1CCOCC1 [Foretinib] (partner 0.25 µM)
# Method in brief: (§1)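 Lung cancer cell lines, seeded in 1536-well plates, were treated the following day by pin tool with a single drug or with five library-drug doses (not always all listed) in √10 steps on top of a fixed anchor-drug dose. Cells were fixed and nuclei stained in one step after 5 days, and nuclei were counted. Relative viability is the nuclei count for treated wells divided by that for vehicle wells, reported as medians of duplicate plates.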
# Palbociclib + Tozasertib = compound: CC(=O)c1c(C)c2cnc(Nc3ccc(N4CCNCC4)cn3)nc2n(C2CCCC2)c1=O [Palbociclib] + Cc1cc(Nc2cc(N3CCN(C)CC3)nc(Sc3ccc(NC(=O)C4CC4)cc3)n2)n[nH]1 [Tozasertib] (partner 0.1 µM)
# Method in brief: as §1
# Palbociclib + Navitoclax = compound: CC(=O)c1c(C)c2cnc(Nc3ccc(N4CCNCC4)cn3)nc2n(C2CCCC2)c1=O [Palbociclib] + CC1(C)CCC(c2ccc(Cl)cc2)=C(CN2CCN(c3ccc(C(=O)NS(=O)(=O)c4ccc(N[C@H](CCN5CCOCC5)CSc5ccccc5)c(S(=O)(=O)C(F)(F)F)c4)cc3)CC2)C1 [Navitoclax] (partner 0.5 µM)
# Method in brief: as §1
# Palbociclib + Trametinib = compound: CC(=O)c1c(C)c2cnc(Nc3ccc(N4CCNCC4)cn3)nc2n(C2CCCC2)c1=O [Palbociclib] + CC(=O)Nc1cccc(-n2c(=O)n(C3CC3)c(=O)c3c(Nc4ccc(I)cc4F)n(C)c(=O)c(C)c32)c1 [Trametinib] (partner 0.02 µM)
# Method in brief: as §1
Cell Line,relative viability (Palbociclib + Foretinib; first compound 0.01 µM),relative viability (Palbociclib + Foretinib; first compound 0.03162 µM),relative viability (Palbociclib + Foretinib; first compound 0.1 µM),relative viability (Palbociclib + Foretinib; first compound 0.3162 µM),relative viability (Palbociclib + Foretinib; first compound 1 µM),relative viability (Palbociclib + Tozasertib; first compound 0.01 µM),relative viability (Palbociclib + Tozasertib; first compound 0.03162 µM),relative viability (Palbociclib + Tozasertib; first compound 0.1 µM),relative viability (Palbociclib + Tozasertib; first compound 0.3162 µM),relative viability (Palbociclib + Tozasertib; first compound 1 µM),relative viability (Palbociclib + Navitoclax; first compound 0.01 µM),relative viability (Palbociclib + Navitoclax; first compound 0.03162 µM),relative viability (Palbociclib + Navitoclax; first compound 0.1 µM),relative viability (Palbociclib + Navitoclax; first compound 0.3162 µM),relative viability (Palbociclib + Navitoclax; first compound 1 µM),relative viability (Palbociclib + Trametinib; first compound 0.01 µM),relative viability (Palbociclib + Trametinib; first compound 0.03162 µM),relative viability (Palbociclib + Trametinib; first compound 0.1 µM),relative viability (Palbociclib + Trametinib; first compound 0.3162 µM),relative viability (Palbociclib + Trametinib; first compound 1 µM)
NCI-H1755,0.928,0.893,0.819,0.801,0.578,0.578,0.596,0.558,0.506,0.506,1.03,0.974,0.876,0.818,0.715,0.804,0.746,0.688,0.719,0.597
NCI-H1793,0.689,,0.713,0.617,0.355,0.358,,0.318,0.339,0.276,0.382,0.38,0.506,0.394,0.369,0.438,0.431,0.44,0.322,0.281
NCI-H1915,1.04,0.968,1.06,0.95,0.905,0.435,0.36,0.48,0.471,0.452,0.764,0.733,0.771,0.782,0.763,0.29,,0.297,0.289,0.245
NCI-H1944,0.915,0.807,0.768,0.756,0.577,0.254,0.242,0.293,0.245,0.229,1.03,1.06,0.878,1.03,0.987,0.399,0.389,0.396,0.37,0.342
NCI-H1975,0.932,0.853,0.899,0.828,0.81,0.733,0.664,0.577,0.694,0.592,1.2,1.02,1.08,0.918,0.877,0.402,0.372,0.309,0.353,0.236
NCI-H1993,0.815,0.633,0.671,0.627,0.52,0.612,0.572,0.575,0.507,0.509,0.84,0.875,0.752,0.771,0.706,0.564,0.612,0.418,0.332,0.514
NCI-H2009,1.2,1,0.998,0.728,0.495,0.739,0.729,0.625,0.479,0.346,1.15,1.17,0.908,0.896,0.404,0.307,0.296,0.194,0.223,0.141
NCI-H2023,0.929,0.523,0.556,0.474,0.322,0.377,0.31,0.314,0.297,0.292,1,0.897,0.897,0.77,0.48,0.655,0.408,0.477,0.464,0.326
NCI-H2085,1.03,0.875,0.744,0.599,0.534,0.84,0.701,0.689,0.635,0.523,1.1,1.04,0.897,0.93,0.776,0.529,0.516,0.588,0.482,0.34
NCI-H2087,0.951,,0.838,0.631,0.47,0.212,,0.189,0.189,0.156,1.04,0.843,0.802,0.685,0.495,0.236,0.191,0.161,0.15,0.187
NCI-H2126,1.28,0.93,0.904,0.78,0.603,0.837,0.746,0.531,0.542,0.363,0.861,0.848,0.743,0.745,0.561,0.575,0.528,0.518,0.509,0.431
NCI-H2170,1.03,0.969,0.955,0.889,0.852,0.697,0.75,0.737,0.77,0.655,0.624,0.552,0.74,0.578,0.549,0.968,0.838,0.889,0.882,0.721
NCI-H2228,0.773,0.782,0.867,0.787,0.781,0.247,0.235,0.247,0.261,0.23,0.99,1.01,0.729,0.856,0.827,0.606,0.373,0.494,0.522,0.483
NCI-H2347,0.917,,0.844,,0.546,0.639,,0.542,0.565,0.361,0.835,0.751,0.646,0.6,0.533,0.295,0.292,0.244,0.249,0.272
NCI-H2405,1.02,0.972,0.884,0.822,0.675,0.75,0.651,0.663,0.574,0.509,0.866,,0.574,0.729,0.722,0.614,0.509,0.531,0.555,0.447
NCI-H3122,0.854,0.936,0.892,0.7,0.553,0.344,0.212,0.231,0.234,0.143,0.941,0.982,0.921,0.757,0.618,0.212,0.207,0.232,0.192,0.158
PC-3 [JPC-3],1.1,0.955,0.884,0.855,0.64,0.918,0.778,0.823,0.774,0.596,0.769,0.778,0.66,0.721,0.635,0.657,0.634,0.534,0.703,0.597
PC-14,0.944,0.865,0.819,0.868,0.733,0.589,,0.523,0.55,0.4,1.14,0.932,0.908,0.877,0.605,0.742,0.528,0.512,0.466,0.273
RERF-LC-KJ,0.868,0.761,0.88,0.861,0.898,0.467,0.446,0.392,0.536,0.534,0.87,0.8,1.26,1.32,1.11,0.793,0.771,0.846,0.813,0.91
SK-LU-1,0.825,0.74,0.571,0.552,0.361,0.334,0.33,0.266,0.251,0.228,0.938,0.757,0.725,0.539,0.733,0.516,0.439,0.39,0.411,0.317
SK-MES-1,1.09,0.834,0.781,0.687,0.502,0.858,0.76,0.595,0.502,0.29,1.36,1.22,0.821,0.745,0.477,0.562,0.463,0.469,0.432,0.313
SW 1573,0.867,1,0.862,0.742,0.785,0.151,0.185,0.167,0.148,0.163,0.986,1,0.838,0.642,0.439,0.6,0.432,0.515,0.42,0.366
UMC-11,1.01,0.86,0.698,0.459,0.275,0.197,0.187,0.202,0.22,0.208,0.326,0.326,0.23,0.257,0.223,0.762,0.602,0.421,0.406,0.258
